Experimental findings from patent US20120190751A1, “COMPOUNDS FOR TREATMENTS OF INFLAMMATION” (ANA-MAR AB, priority 2009, published 2012) are described below.

One experiment has as its target T1, 5-HT4 receptor (Cavia porcellus, UniProt O70528).
T1 construct: tissue or cells expressing the receptor of interest were suspended in incubation buffer; from tissue; host or cells: guinea-pig tissue (which tissue is not visible)
In words: Radio-ligand binding assay 5-HT4. The arrangement: species or system Guinea pig. The method, then:
(§1) Determination of binding affinities for various 5-HT receptors was performed by radio-ligand binding assays. Briefly, tissue or cells expressing the receptor of interest were suspended in incubation buffer and radio-ligands and 10 μM N-(2-chloro-3,4-dimethoxybenzylidene-amino)guanidine were added. After incubation, separation of bound and free radio-ligand was done by multiple washings with buffer.
(§2) The results were presented as the percent inhibition of specific binding. The IC50 values were determined by a non-linear least square regression analysis using MathIQ™ (ID Business Solution Ltd., UK). The inhibition constants (Ki) were calculated using the equation of Cheng and Prusoff (Cheng Y, Prusoff W H, Biochem. Pharmacol. 22:3099-3108, 1973) using the observed IC50 of the tested compound, the concentration of radioligand employed in the assay and the historical values for the KD of the ligand.

In experiment [1] the test system is antigen-induced arthritis. In words: Antigen-induced arthritis (AIA) in the rat, knee-joint swelling. In kind it is in vivo. The text has this: Antigen-Induced Arthritis (AIA) is a Well-Documented Animal Experimental Model of human arthritic disease (Dumonde, D. C. and Glynn, L. E. (1962), Br. J. Exp. Pathol. 43:373-383). In this model, inflammation is induced by immunization followed by an intra-articular (knee-joint) challenge with the antigen. This causes an increase in knee diameter due to the formation of a pannus, i.e. hyperproliferative synovial tissue, which spreads over the articular cartilage into the bone, leading to erosion and destruction of the joint tissue (Carpenter, T. A. et al. (1994), Skeletal Radiol. 23:429-437).
AIA was applied for a short-term in vivo evaluation of our test compounds, with treatment during 4 days.
Female Dark Agouti rats were sensitized subcutaneously at the tail root with 1 mg mBSA (Sigma A1009) dissolved in 50 μl saline and emulsified in 50 μl Freund's complete adjuvant (Sigma F5881). Eleven days later the rats were challenged (unilateral) with an intra-articular (i.a.) injection of 75 μg mBSA dissolved in 50 μl saline. The procedures were carried out under a brief Isoflurane anaesthesia. Animals were treated once or twice daily with oral administration of N-(2-chloro-3,4-dimethoxybenzylideneamino)guanidine in saline. […] The knee-joint swelling was measured daily with an odimeter/calliper; the body weight was recorded before arthritis induction and at the end of the experiment. […]

The target in a further experiment is T2, 5-HT3 receptor (Homo sapiens, UniProt P46098).
T2 sequence (P46098 24-478): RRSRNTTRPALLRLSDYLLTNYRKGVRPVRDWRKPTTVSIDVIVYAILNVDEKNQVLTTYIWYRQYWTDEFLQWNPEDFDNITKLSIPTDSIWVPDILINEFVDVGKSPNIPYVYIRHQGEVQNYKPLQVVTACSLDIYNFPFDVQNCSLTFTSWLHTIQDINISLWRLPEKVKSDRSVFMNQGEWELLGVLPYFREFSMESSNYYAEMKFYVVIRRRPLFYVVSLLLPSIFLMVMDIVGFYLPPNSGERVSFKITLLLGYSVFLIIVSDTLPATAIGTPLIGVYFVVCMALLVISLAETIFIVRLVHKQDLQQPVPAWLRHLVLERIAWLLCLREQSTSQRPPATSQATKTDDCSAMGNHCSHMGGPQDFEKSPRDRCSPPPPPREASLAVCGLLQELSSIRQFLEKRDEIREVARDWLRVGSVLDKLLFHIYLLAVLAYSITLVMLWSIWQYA
In words: Radio-ligand binding assay 5-HT3. To be noted: 10 μM compound; [3H] GR65630 35 nM; human rec. HEK293 cells. The method, then: as §1, §2

T1 sequence (O70528 whole entry): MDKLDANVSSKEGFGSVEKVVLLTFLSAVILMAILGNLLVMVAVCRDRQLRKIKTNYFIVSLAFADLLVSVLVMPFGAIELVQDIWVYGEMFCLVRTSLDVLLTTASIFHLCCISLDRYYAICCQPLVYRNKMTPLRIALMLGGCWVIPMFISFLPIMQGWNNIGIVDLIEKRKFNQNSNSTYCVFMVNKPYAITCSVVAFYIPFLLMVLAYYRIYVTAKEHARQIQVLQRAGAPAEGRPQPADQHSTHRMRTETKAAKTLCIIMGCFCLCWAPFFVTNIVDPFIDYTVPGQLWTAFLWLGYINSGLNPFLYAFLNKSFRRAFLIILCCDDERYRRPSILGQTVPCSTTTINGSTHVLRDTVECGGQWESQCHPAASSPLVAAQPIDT

As to `COc1ccc(C=NNC(=N)N)c(Cl)c1OC` [N-(2-chloro-3,4-dimethoxybenzylideneamino)guanidine], the inhibition at 10 µM on 5-HT4 receptor (10 μM compound, [3H] GR113808 0.2 nM, guinea pig striata) amounted to 99%; on 5-HT3 receptor, 3.3%. Besides, at 5-HT4 receptor (10 different concentrations, Cheng-Prusoff, FIG. 1), the Ki amounted to 276 nM. Further, in experiment [1] (administration started one day after disease induction), the “effect in AIA at administration one day after disease induction” value was “therapeutic effect”. Further, in experiment [1] (oral, 1-10 mg/kg once or twice daily for 4 days from day of challenge, FIG. 5), the “knee-joint swelling in AIA” value was “reproducibly reduce joint swelling”.

By inhibition is commonly meant the share of the control response that was lost under treatment. A high value points to a strong effect. By Ki is commonly meant the equilibrium dissociation constant of an inhibitor or competing ligand from its target. The low end stands for a stronger hold on the target, the high end for a looser hold on the target.
